Test results from ChEMBL document CHEMBL6134812, “A thiocoumarin based self-reporting sulfide prodrug strategy with a favorable safety profile” (Eur J Med Chem, 2025).
Activity calls are given as the source filed them. No cut-off for these calls is given here.

Assays:
Liver carboxylesterase [1] = target: T1, Liver carboxylesterase (Sus scrofa, UniProt Q29550); assay: Prodrug release assessed as pig liver esterase-mediated H2S and fluorescent coumarin release by measuring half life of drug at 500 uM by HPLC analysis; type: ADME
T1 sequence (Q29550 whole entry): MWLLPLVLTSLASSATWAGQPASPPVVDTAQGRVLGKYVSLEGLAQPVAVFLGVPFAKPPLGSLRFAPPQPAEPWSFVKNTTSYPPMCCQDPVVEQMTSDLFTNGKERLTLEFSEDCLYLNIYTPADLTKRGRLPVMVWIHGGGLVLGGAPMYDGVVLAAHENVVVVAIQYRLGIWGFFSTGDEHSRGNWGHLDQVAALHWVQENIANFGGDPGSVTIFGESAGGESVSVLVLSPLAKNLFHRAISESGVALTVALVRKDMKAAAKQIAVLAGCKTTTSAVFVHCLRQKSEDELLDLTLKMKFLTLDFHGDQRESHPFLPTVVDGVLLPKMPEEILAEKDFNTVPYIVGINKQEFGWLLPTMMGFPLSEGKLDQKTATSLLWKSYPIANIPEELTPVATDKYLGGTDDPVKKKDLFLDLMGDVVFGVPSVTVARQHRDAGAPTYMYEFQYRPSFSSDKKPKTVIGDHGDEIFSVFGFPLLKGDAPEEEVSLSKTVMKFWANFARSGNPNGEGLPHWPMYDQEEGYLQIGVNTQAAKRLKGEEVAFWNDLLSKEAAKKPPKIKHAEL

[2] = Prodrug release in Sprague-Dawley rat plasma assessed as increase in fluorescence intensity by measuring half life at 500 uM by fluorescence based analysis; type: ADME, cell-free
[3] = Prodrug release in Sprague-Dawley rat plasma assessed as fluorescence intensity at 500 uM by fluorescence based analysis; type: ADME, cell-free
Mus musculus [4] = assay: Protection against cerebral infarction in C57BL/6JNifdc mouse tMCAO model assessed as decrease in infarction area in brain at 100 umol/kg, iv measured after 24 hrs by TTC staining based analysis; type: functional, organism-based; conditions: dose 100.0 µmol/kg
Mus musculus [5] = assay: Protection against cerebral infarction in C57BL/6JNifdc mouse tMCAO model assessed as decrease in MDA level in serum at 100 umol/kg, iv measured per mg protein after 24 hrs; type: functional; conditions: dose 100 µmol/kg
Mus musculus [6] = assay: Protection against cerebral infarction in C57BL/6JNifdc mouse tMCAO model assessed as decrease in LDH level in brain at 100 umol/kg, iv measured after 24 hrs; type: functional, organism-based; conditions: dose 100.0 µmol/kg
Mus musculus [7] = assay: Anticoagulant activity in C57BL/6J mouse assessed as tail bleeding time at 40 mg/kg, ip and measured for 40 mins; type: functional
Mus musculus [8] = assay: Anticoagulant activity in C57BL/6J mouse assessed as prothrombin time at 40 mg/kg, ip; type: functional, organism-based
Mus musculus [9] = assay: Anticoagulant activity in C57BL/6J mouse assessed as activated partial thromboplastin time at 40 mg/kg, ip; type: functional, organism-based
[10] = Drug uptake in C57BL/6J mouse kidney assessed as increase in fluorescence intensity at 100 umol/kg, iv measured after 10 mins by Ex vivo fluorescent imaging analysis; type: ADME, organism-based; conditions: dose 100 µmol/kg
[11] = Drug uptake in C57BL/6J mouse brain assessed as increase in fluorescence intensity at 100 umol/kg, iv measured after 10 mins by Ex vivo fluorescent imaging analysis; type: ADME, organism-based; conditions: dose 100 µmol/kg
[12] = Drug uptake in C57BL/6J mouse liver assessed as increase in fluorescence intensity at 100 umol/kg, iv measured after 10 mins by Ex vivo fluorescent imaging analysis; type: ADME, organism-based; conditions: dose 100 µmol/kg
Liver carboxylesterase [13] = target: T1, Liver carboxylesterase; assay: Prodrug release assessed as pig liver esterase-mediated H2S and fluorescent coumarin release by measuring half life of drug at 500 uM by fluorescence based analysis; type: ADME
Liver carboxylesterase [14] = target: T1, Liver carboxylesterase; assay: Prodrug release assessed as pig liver esterase-mediated H2S and fluorescent coumarin release at 500 uM incubated for 24 hrs in presence of esterase inhibitor by HPLC analysis; type: ADME; conditions: isolated protein
Liver carboxylesterase [15] = target: T1, Liver carboxylesterase; assay: Prodrug release assessed as pig liver esterase-mediated H2S and coumarin release by measuring H2S concentration at 500 uM measured after 12 hrs by methylene blue method; type: ADME; conditions: isolated protein
[16] = Prodrug release in Sprague-Dawley rat plasma assessed as fluorescence intensity at 500 uM measured after 24 hrs in presence of esterase inhibitor by fluorescence based analysis; type: ADME, cell-free
[17] = Prodrug release in C57BL/6J mouse kidney assessed as H2S generation by measuring increase in fluorescence intensity at 100 umol/kg, iv measured after 6 hrs by Ex vivo fluorescent imaging analysis; type: ADME, organism-based; conditions: dose 100 µmol/kg
[18] = Prodrug release in C57BL/6J mouse brain assessed as H2S generation by measuring increase in fluorescence intensity at 100 umol/kg, iv measured after 6 hrs by Ex vivo fluorescent imaging analysis; type: ADME, organism-based; conditions: dose 100 µmol/kg
[19] = Prodrug release in C57BL/6J mouse liver assessed as H2S generation by measuring increase in fluorescence intensity at 100 umol/kg, iv measured after 6 hrs by Ex vivo fluorescent imaging analysis; type: ADME, organism-based; conditions: dose 100 µmol/kg
[20] = Prodrug release in C57BL/6J mouse kidney assessed as increase in fluorescence intensity at 100 umol/kg, iv measured after 6 hrs by fluorescence based analysis; type: ADME, organism-based; conditions: in vivo, dose 100 µmol/kg
[21] = Prodrug release in C57BL/6J mouse brain assessed as increase in fluorescence intensity at 100 umol/kg, iv measured after 6 hrs by fluorescence based analysis; type: ADME, organism-based; conditions: in vivo, dose 100 µmol/kg
[22] = Prodrug release in C57BL/6J mouse liver assessed as increase in fluorescence intensity at 100 umol/kg, iv measured after 6 hrs by fluorescence based analysis; type: ADME, organism-based; conditions: in vivo, dose 100 µmol/kg
[23] = Acute liver toxicity in C57BL/6J mouse assessed as ALT level in serum at 869 mg/kg, ip measured after 24 hrs; type: organism-based; conditions: in vivo
[24] = Acute liver toxicity in C57BL/6J mouse assessed as AST level in serum at 869 mg/kg, ip measured after 24 hrs; type: organism-based; conditions: in vivo
[25] = Acute liver toxicity in C57BL/6J mouse assessed as ALP level in serum at 869 mg/kg, ip measured after 24 hrs; type: organism-based; conditions: in vivo
[26] = Acute liver toxicity in C57BL/6J mouse assessed as gamma-GT level in liver at 869 mg/kg, ip measured after 24 hrs; type: organism-based; conditions: in vivo
Mus musculus [27] = assay: Acute renal toxicity in C57BL/6J mouse assessed as albumin level in serum at 869 mg/kg, ip measured after 24 hrs; type: organism-based; conditions: in vivo
Mus musculus [28] = assay: Acute renal toxicity in C57BL/6J mouse assessed as GSH level in kidney at 869 mg/kg, ip measured after 24 hrs; type: organism-based; conditions: in vivo
[29] = Acute toxicity in C57BL/6J mouse assessed as total protein level at 869 mg/kg, ip measured after 24 hrs; type: organism-based; conditions: in vivo
[30] = Acute toxicity in C57BL/6J mouse assessed as total bilirubin level in serum at 869 mg/kg, ip measured after 24 hrs; type: organism-based; conditions: in vivo
[31] = Acute toxicity in C57BL/6J mouse assessed as creatinine level in serum at 869 mg/kg, ip measured after 24 hrs; type: organism-based; conditions: in vivo
[32] = Acute toxicity in C57BL/6J mouse assessed as uric acid level in serum at 869 mg/kg, ip measured after 24 hrs; type: organism-based; conditions: in vivo
[33] = Acute toxicity in C57BL/6J mouse assessed as SOD level at 869 mg/kg, ip measured after 24 hrs; type: organism-based; conditions: in vivo
[34] = Acute toxicity in C57BL/6J mouse assessed as morphological changes in liver at 869 mg/kg, ip measured after 24 hrs by Hematoxylin-Eosin staining based analysis; type: organism-based; conditions: in vivo
[35] = Acute toxicity in C57BL/6J mouse assessed as morphological changes in kidney at 869 mg/kg, ip measured after 24 hrs by Hematoxylin-Eosin staining based analysis; type: organism-based; conditions: in vivo
[36] = Acute toxicity in C57BL/6J mouse assessed as visible bleeding in cerebral area at 869 mg/kg, ip measured after 24 hrs; type: organism-based; conditions: in vivo

In the case of Cc1cc(=S)oc2cc(N(C)C)ccc12, the t1/2 (Liver carboxylesterase [1]) is reported as > 120 h and the t1/2 [2] is reported as 36.22 h.
In the case of S=c1ccc2ccc3occc3c2o1, the t1/2 (Liver carboxylesterase [1]) is reported as 66.71 h and the Drug metabolism [3] is reported as “metabolite_notdetected”.
In the case of Nc1ccc2c(C(F)(F)F)cc(=S)oc2c1, the t1/2 (Liver carboxylesterase [1]) is reported as > 120 h and the t1/2 [2] is reported as 9.43 h.
For COc1ccc2cc3c(C)cc(=S)oc3cc2c1, the t1/2 (Liver carboxylesterase [1]) was > 120 h and the t1/2 [2] was 9.06 h.
With CCN(CC)c1ccc2c(C)cc(=S)oc2c1 the t1/2 (Liver carboxylesterase [1]) was > 120 h, the Activity (Mus musculus [4]) was “Active” and the Activity (Mus musculus [5]) was 7.4 nmol. For the same compound, the Activity (Mus musculus [6]) was “Active”, the Time (Mus musculus [7]) was 16.6 min and the Activity (Mus musculus [8]) was “Active; Retained The Anticoagulant Activity Of Coumarins Observed”. For the same compound, the Activity (Mus musculus [9]) was “Active; Retained The Anticoagulant Activity Of Coumarins Observed”.
With Cc1cc(=S)oc2cc3cc(O)ccc3cc12 the t1/2 (Liver carboxylesterase [1]) was > 120 h and the t1/2 [2] was 52.4 h.
With O=c1ccc2cc3ccoc3cc2o1 [PSORALEN] the Activity (Mus musculus [4]) was “Active; Slight Decrease Compared To Thio-Coumarins (Sulfide Prodrugs)” and the Time (Mus musculus [7]) was 22.24 min.
In the case of CCN(CC)c1ccc2c(CN(C)O)cc(=S)oc2c1, the t1/2 (Liver carboxylesterase [1]) is reported as > 120 h and the t1/2 [2] is reported as 5.78 h.
In the case of S=c1ccc2ccccc2o1, the t1/2 (Liver carboxylesterase [1]) is reported as 94.44 h and the Drug metabolism [3] is reported as “metabolite_notdetected”.
In the case of CCN(CC)c1ccc2c(C)cc(=O)oc2c1, the Activity (Mus musculus [4]) is reported as “Active; Slight Decrease Compared To Thio-Coumarins (Sulfide Prodrugs)” and the Time (Mus musculus [7]) is reported as 9.58 min.
With Cc1cc(=O)oc2cc(O)ccc12 [HYMECROMONE] the Drug uptake [10] was “Active”, the Drug uptake [11] was “Active” and the Drug uptake [12] was “Active”. For the same compound, the Activity (Mus musculus [4]) was “Active; Slight Decrease Compared To Thio-Coumarins (Sulfide Prodrugs)” and the Time (Mus musculus [7]) was 13.99 min.
For Cc1cc(=S)oc2cc(O)ccc12, the t1/2 (Liver carboxylesterase [13]) was 50.4 h, the t1/2 (Liver carboxylesterase [1]) was 57.59 h and the Drug metabolism (Liver carboxylesterase [14]) was “metabolite_notdetected”. For the same compound, the Drug metabolism (Liver carboxylesterase [15]) was 31.46 µM, the t1/2 [2] was 2.52 h and the Drug metabolism [16] was “metabolite_notdetected”. The Drug metabolism [17] was “metabolite_detected”, the Drug metabolism [18] was “metabolite_detected” and the Drug metabolism [19] was “metabolite_detected”. The Drug metabolism [20] was “metabolite_detected”, the Drug metabolism [21] was “metabolite_detected” and the Drug metabolism [22] was “metabolite_detected”. The Activity (Mus musculus [4]) was “Active”, the Activity (Mus musculus [5]) was 7.59 nmol and the Activity (Mus musculus [6]) was “Active”. The Time (Mus musculus [7]) was 10.84 min, the Activity (Mus musculus [8]) was “Active; Retained The Anticoagulant Activity Of Coumarins Observed” and the Activity (Mus musculus [9]) was “Active; Retained The Anticoagulant Activity Of Coumarins Observed”.
In the case of S=c1ccc2cc3ccoc3cc2o1, the t1/2 (Liver carboxylesterase [1]) is reported as 62.89 h, the t1/2 [2] is reported as 3.95 h and the Activity (Mus musculus [4]) is reported as “Active”. The Activity (Mus musculus [5]) was 14.14 nmol, the Activity (Mus musculus [6]) was “Active” and the Activity [23] was “Non-toxic”. For the same compound, the Activity [24] was “Non-toxic”, the Activity [25] was “Non-toxic” and the Activity [26] was “Non-toxic”. For the same compound, the Activity (Mus musculus [27]) was “Non-toxic”, the Activity (Mus musculus [28]) was “Non-toxic” and the Activity [29] was “Non-toxic”. For the same compound, the Activity [30] was “Non-toxic”, the Activity [31] was “Non-toxic” and the Activity [32] was “Non-toxic”. For the same compound, the Activity [33] was “Non-toxic”, the Activity [34] was “Non-toxic” and the Activity [35] was “Non-toxic”. For the same compound, the Activity [36] was “Non-toxic”, the Time (Mus musculus [7]) was 16.52 min and the Activity (Mus musculus [8]) was “Active; Retained The Anticoagulant Activity Of Coumarins Observed”. For the same compound, the Activity (Mus musculus [9]) was “Active; Retained The Anticoagulant Activity Of Coumarins Observed”.
